Measurements from patent publication US8952035B2, “Combination of anti-angiogenic substance and anti-tumor platinum complex” (Eisai R&D Management Co., Ltd., priority 2008, dated 2015).

Key:
[1] = tested on: Human non-small-cell lung cancer cell line A549; assay: Combination use of E7080 and carboplatin in subcutaneous transplanted models (in vivo) of A549; set-up: species or system nude mouse; conditions: alone
Description: Human non-small-cell lung cancer cell line A549 (purchased from Dainippon Sumitomo Pharma Co., Ltd) was cultured in RPMI1640 (containing 10% FBS) in a 5% carbon dioxide gas incubator at 37° C. to about 80% confluence, and then the cells were collected with trypsin-EDTA. A 1×10^8 cells/mL suspension was prepared with a phosphate buffer, which was further added with matrigel matrix (purchased from Becton, Dickinson and Co.) to give a 5×10^7 cells/mL suspension, and each 0.2 mL of the resulting cell suspension was subcutaneously transplanted to a nude mouse at the side of its body. Eleven days after the transplantation, 4-(3-chloro-4-(cyclopropylaminocarbonyl)aminophenoxy)-7-methoxy-6-quinolinecarboxamide (E7080) was orally administered for 3 or 10 mg/kg, once a day for four weeks, while 100 mg/kg of carboplatin was administered into the tail vein on the first day. The major and minor axes of tumors were measured with Digimatic caliper (Mitsutoyo Corporation), and tumor volumes and relative tumor volumes were calculated according to the following formulae: Tumor Volume (TV)=Major axis of tumor(mm)×(Minor axis of tumor)^2(mm^2)/2 Relative Tumor Volume (RTV)=Tumor volume on measurement day/Tumor volume on the first administration day.
Tables 4 and 5 show anti-tumor effects obtained by the use of E7080 alone, the use of carboplatin alone and the combination use of E7080 and carboplatin in subcutaneous transplanted A549 models. The first day of administration was considered Day 1.

[2] = tested on: Human non-small-cell lung cancer cell line A549; assay: Combination use of E7080 and cisplatin in subcutaneous transplanted models (in vivo) of A549; set-up: species or system nude mouse; conditions: alone
Description: Human non-small-cell lung cancer cell line A549 (purchased from Dainippon Sumitomo Pharma Co., Ltd) was cultured in RPMI1640 (containing 10% FBS) in a 5% carbon dioxide gas incubator at 37° C. to about 80% confluence, and then the cells were collected with trypsin-EDTA. A 1×10^8 cells/mL suspension was prepared with a phosphate buffer, which was further added with matrigel matrix (purchased from Becton, Dickinson and Co.) to give a 5×10^7 cells/mL suspension, and each 0.2 mL of the resulting cell suspension was subcutaneously transplanted to a nude mouse at the side of its body. Eleven days after the transplantation, 4-(3-chloro-4-(cyclopropylaminocarbonyl)aminophenoxy)-7-methoxy-6-quinolinecarboxamide (hereinafter, also referred to as “[…]”) was orally administered for 3, 10 or 30 mg/kg, once a day for four weeks, while 10 mg/kg of cisplatin was administered into the tail vein once a day. The major and minor axes of tumors were measured with Digimatic caliper (Mitsutoyo Corporation), and tumor volumes and relative tumor volumes were calculated according to the following formulae: Tumor Volume (TV)=Major axis of tumor(mm)×(Minor axis of tumor)^2(mm^2)/2 Relative Tumor Volume (RTV)=Tumor volume on measurement day/Tumor volume on the first administration day. […] Tables 1, 2 and 3 show anti-tumor effects obtained by the use of […] alone, the use of cisplatin alone and the combination use of […] and cisplatin in subcutaneous transplanted A549 models. The first day of administration was considered Day 1.

[3] = E7080 3 mg/kg orally once a day for four weeks
[4] = E7080 10 mg/kg orally once a day for four weeks

N.N.O=C([O-])C1(C(=O)[O-])CCC1.[Pt+2] [Carboplatin, carboplatin, reference compound]
Relative tumor volume on Day 29 Average ± standard deviation ([1]; Carboplatin 100 mg/kg into the tail vein on the first day): 7.87 ± 1.05

N.N.[Cl][Pt][Cl] [Cisplatin, cisplatin, reference compound]
Relative tumor volume on Day 29 Average ± standard deviation ([2]; Cisplatin 10 mg/kg into the tail vein): 7.99 ± 0.88

COc1cc2nccc(Oc3ccc(NC(=O)NC4CC4)c(Cl)c3)c2cc1C(N)=O [E7080, 4-(3-chloro-4-(cyclopropylaminocarbonyl)aminophenoxy)-7-methoxy-6-quinolinecarboxamide]
Relative tumor volume on Day 29 Average ± standard deviation [2, 3]: 2.24 ± 0.34
Relative tumor volume on Day 29 Average ± standard deviation [2, 4]: 1.81 ± 0.29
Relative tumor volume on Day 29 Average ± standard deviation ([2]; E7080 30 mg/kg orally once a day for four weeks): 1.20 ± 0.21
Relative tumor volume on Day 29 Average ± standard deviation [1, 3]: 2.24 ± 0.34
Relative tumor volume on Day 29 Average ± standard deviation [1, 4]: 1.81 ± 0.29
